# Measured values taken from patent publication US8822542B2, “Isoketal scavengers and mitigation of disorders involving oxidative injury” (Vanderbilt University, priority 2005, dated 2014).
# Entries after “also recorded” stand apart in the source; their conditions may differ.
# Key:
# [1] = biological target: human cardiac Na channel (hH1, or SCN5A) (Homo sapiens, UniProt Q14524); test: Whole-cell Na current recording, wild-type hH1 expressed in HEK-293 cells; conditions: HEK-293; t-BHP 1 mM, Iso-K 10 μM, flecainide 1 μM
# human cardiac Na channel (hH1, or SCN5A), sequence (Q14524 whole entry): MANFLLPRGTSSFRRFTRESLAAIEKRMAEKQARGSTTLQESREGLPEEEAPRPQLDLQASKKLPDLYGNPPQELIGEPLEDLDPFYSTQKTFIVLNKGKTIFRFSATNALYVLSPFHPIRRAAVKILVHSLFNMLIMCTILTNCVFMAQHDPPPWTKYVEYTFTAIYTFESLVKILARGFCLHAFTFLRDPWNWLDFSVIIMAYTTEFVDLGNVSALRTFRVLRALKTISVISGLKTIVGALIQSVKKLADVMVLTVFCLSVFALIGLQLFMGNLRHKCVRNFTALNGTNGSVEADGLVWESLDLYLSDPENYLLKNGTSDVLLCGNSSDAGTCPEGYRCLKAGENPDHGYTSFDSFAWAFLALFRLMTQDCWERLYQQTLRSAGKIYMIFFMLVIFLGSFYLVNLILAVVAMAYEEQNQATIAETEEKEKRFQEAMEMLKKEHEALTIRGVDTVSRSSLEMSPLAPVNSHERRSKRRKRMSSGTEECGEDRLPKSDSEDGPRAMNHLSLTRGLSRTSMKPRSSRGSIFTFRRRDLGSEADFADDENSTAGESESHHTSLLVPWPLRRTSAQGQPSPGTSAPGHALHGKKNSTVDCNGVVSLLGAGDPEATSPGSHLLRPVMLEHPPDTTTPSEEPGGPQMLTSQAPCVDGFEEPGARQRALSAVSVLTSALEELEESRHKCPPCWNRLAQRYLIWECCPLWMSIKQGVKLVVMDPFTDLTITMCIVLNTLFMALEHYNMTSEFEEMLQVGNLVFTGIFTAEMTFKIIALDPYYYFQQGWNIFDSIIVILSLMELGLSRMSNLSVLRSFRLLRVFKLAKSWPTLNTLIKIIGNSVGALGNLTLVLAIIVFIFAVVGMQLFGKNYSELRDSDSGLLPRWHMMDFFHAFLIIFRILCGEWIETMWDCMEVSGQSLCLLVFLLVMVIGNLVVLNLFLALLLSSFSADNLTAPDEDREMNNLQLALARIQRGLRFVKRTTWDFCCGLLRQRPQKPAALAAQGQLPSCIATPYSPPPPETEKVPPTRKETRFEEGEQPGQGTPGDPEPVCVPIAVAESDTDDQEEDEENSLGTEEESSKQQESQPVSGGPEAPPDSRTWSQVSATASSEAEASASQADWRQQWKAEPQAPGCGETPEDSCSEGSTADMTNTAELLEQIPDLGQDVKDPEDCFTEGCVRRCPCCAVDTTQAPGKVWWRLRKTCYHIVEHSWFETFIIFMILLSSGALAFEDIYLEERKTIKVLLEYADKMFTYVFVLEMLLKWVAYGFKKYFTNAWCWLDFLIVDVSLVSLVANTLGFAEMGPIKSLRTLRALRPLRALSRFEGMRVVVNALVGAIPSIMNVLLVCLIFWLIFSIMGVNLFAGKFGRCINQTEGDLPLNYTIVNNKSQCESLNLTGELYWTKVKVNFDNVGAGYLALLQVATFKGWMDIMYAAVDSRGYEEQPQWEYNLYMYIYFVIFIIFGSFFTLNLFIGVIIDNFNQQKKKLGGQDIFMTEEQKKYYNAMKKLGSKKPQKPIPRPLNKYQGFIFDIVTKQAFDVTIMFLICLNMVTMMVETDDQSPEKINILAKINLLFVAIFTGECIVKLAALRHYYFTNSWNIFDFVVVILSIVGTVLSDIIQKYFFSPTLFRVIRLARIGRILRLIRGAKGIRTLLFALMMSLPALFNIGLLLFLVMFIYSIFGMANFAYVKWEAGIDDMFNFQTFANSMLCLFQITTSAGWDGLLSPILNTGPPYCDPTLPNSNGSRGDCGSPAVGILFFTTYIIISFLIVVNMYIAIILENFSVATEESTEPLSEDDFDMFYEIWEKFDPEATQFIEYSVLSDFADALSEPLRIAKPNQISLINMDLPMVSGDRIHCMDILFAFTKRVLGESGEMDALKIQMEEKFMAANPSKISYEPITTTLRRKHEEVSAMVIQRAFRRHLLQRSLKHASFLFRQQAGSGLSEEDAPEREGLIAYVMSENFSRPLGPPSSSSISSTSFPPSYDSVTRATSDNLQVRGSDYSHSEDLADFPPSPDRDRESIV
# [2] = Second order rate of pyrrole formation with the model γ-ketoaldehyde 4-oxopentanal; type: biochemical
# Protocol: The present inventors determined the approximate second order rate constants of different amines for pyrrole formation with […], a γ-ketoaldehyde.
# These compounds are tested for the rate of pyrrole formation when incubated with the γ-ketoaldehyde, 4-oxopentanal. […] Ehrlich reagent may be used to detect levels of pyrroles.
# All rates are shown relative to N-α-acetyl-lysine.
# [3] = system: patients convalescing from myocardial infarction; conditions: in vivo; cited from earlier work
# [4] = Oxidation of arachidonic acid in the presence of scavenger and 10 molar excess of lysine; type: biochemical; conditions: for levels of Lys-lactam adduct formed: compared to vehicle
# Text: The amounts of each of these adducts to the amount of γ KA adduct formed were normalized. […] Because cardiac ion channels are embedded in cellular membranes, the ability to penetrate into membranes is critical.
# HepG2 cell = test: Cellular viability of HepG2 cells exposed to hydrogen peroxide; type: cell-based
# [5] = Lipophilicity / penetration into nonpolar environments; type: physicochemical
# [6] = system: transgenic humanized apoE4 mice (hApoE4); test: Water radial arm maze in transgenic humanized apoE4 mice; type: in vivo, mouse; design: dose or concentration left out as unconfirmed; conditions: water containing SA, six months, tested at 12 months of age
# Text: Starting at six months of age, wild-type (C57) and transgenic humanized apoE4 mice (hApoE4) were given either standard water or water containing […] SA (+SA) as their only source of drinking water. At this time, animals were also switched from standard chow diets to either a sufficient amino acid based diet (suff) or an amino-acid based diet insufficient in choline, methionine, and folate, and enriched in homocysteine (HC). All animals were fed diets and drinking water for six months (to 12 months of age) prior to testing. The purpose of the HC diet was to attempt to exacerbate oxidative stress in these animals. Because breeding and behavioral testing is extremely time consuming, it was not possible to have sufficient animals for each group in a single cohort and still perform adequate behavioral testing. Therefore two separate cohorts of animals (A & B) were raised and tested about two month apart. […]
# The water radial arm maze test requires a mouse to find a hidden platform placed in one of six maze arms. […] If the mouse enters an arm without the platform, an error is scored and the mouse is dragged by the tail back to the start arm and released. […] If a mouse swims in the central area for 12 sec without picking an arm, an error is also scored and the animal is dragged back to the start arm and released. […]
# [7] = system: mice subjected to ligation of the left anterior coronary artery; test: Myocardial infarction by coronary ligation in mice; type: in vivo, mouse
# Text: (§1) In a series of experiments, the present inventors have tested the effect of the γ KA scavenger salicylamine (SA) in mice subjected to ligation of the left anterior coronary artery resulting in a myocardial infarction. All experiments were done in blinded fashion regarding the treatment group (SA versus placebo (water)). Mice received drinking water containing either SA (1 g/l) or no drug for three days prior to coronary ligation and for 7 days afterwards.
# The present inventors examined the effect of SA treatment on Lys-lactam protein adduct formation. Mouse hearts were harvested 7 days after coronary ligation and the atria and the right ventricular free wall were removed. The remainder of each heart (LV free wall and septum) was then cut into two, roughly equal tissue specimens of ˜50 mg wet weight: The anterior-apical part contained the infarct and the peri-infarct border zone (MI+borderzone), and the posterior-basal part was unaffected (Remote). The tissue content of Lys-lactam protein adducts was quantified using our LC MS^2 based analytical technique.
# [8] = SA in the drinking water of mice: concentrations and tolerability; type: in vivo, C57BL6 mice
# Protocol: as §1
# SA was tested to determine whether it could be used in vivo. 1 g/L or 5 g/L salicylamine was added to the drinking water of C57BL6 mice for 5 days and then harvested plasma and liver from the animals. SA was measured by monitoring absorption at 259 nm after derivatization with 1,1′-thiocarbonyldiimidazole.
# ovalbumin (OVA) = ovalbumin (OVA) (Gallus gallus, UniProt P01012); test: Protein cross-linking after incubation with ovalbumin; type: biochemical; conditions: 10 molar equivalents, about 4 hours
# ovalbumin (OVA), sequence (P01012 whole entry, species assumed): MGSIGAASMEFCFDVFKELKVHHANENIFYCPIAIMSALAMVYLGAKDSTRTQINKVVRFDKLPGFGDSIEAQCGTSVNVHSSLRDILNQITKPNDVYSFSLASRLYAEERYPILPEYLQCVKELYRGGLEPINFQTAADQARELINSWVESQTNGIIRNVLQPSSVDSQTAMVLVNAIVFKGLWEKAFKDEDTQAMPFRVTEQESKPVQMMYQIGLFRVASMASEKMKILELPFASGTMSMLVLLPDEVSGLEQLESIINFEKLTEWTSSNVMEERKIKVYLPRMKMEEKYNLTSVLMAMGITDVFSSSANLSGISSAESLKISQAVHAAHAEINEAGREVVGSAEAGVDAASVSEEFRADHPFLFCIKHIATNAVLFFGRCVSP
# Text: The above findings explained why repeated attempts in the past to detect free IsoKs during oxidation of biological systems in vitro, e.g. microsomes, and in animal models of oxidant injury in vivo were unsuccessful because they are rapidly sequestered as protein adducts. Therefore, the present inventors undertook to determine the identity of IsoK lysyl adducts as a basis for development of methodology to detect IsoK and NeuroK adducts in biological tissues in their adducted form. […] Reversible Schiff base adducts were also identified. Schiff base adducts are formed rapidly and then decline over time, whereas lactam adducts accumulate slowly over time. Lysyl protein adducts of IsoKs and NeuroKs are analyzed by LC/MS/MS following enzymatic digestion of proteins to individual amino acids. Enzymatic digestion of proteins is necessary because the adducts degrade during acid hydrolysis. However, this analysis is further complicated by the proclivity of IsoKs and NKs to induce protein crosslinking, which is resistant to hydrolysis. […] This is a dramatic example of the differential effects of IsoKs/NKs and HNE on protein adduction and cross-linking.
# bovine serum albumin = bovine serum albumin (Bos taurus, UniProt P02769); test: Disappearance of free IsoK and HNE during incubation with bovine serum albumin (rate of adduction); type: biochemical; conditions: after 80 minutes
# bovine serum albumin, sequence (P02769 25-607): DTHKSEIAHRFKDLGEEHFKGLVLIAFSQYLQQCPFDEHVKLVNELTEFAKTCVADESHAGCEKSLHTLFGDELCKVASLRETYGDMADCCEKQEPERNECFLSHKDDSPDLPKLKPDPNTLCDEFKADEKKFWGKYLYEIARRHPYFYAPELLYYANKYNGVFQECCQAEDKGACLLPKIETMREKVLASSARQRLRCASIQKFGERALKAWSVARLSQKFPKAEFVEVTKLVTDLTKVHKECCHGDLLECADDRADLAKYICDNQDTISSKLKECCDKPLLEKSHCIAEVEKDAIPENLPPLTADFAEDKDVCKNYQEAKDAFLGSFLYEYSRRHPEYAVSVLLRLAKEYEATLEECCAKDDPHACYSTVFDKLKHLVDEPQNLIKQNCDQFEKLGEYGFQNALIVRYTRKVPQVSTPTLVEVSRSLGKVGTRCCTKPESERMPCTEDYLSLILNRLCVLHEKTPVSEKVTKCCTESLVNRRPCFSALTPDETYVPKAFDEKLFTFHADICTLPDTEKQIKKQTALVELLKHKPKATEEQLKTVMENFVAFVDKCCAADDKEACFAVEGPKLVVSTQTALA
# Protocol: Oxidation of AA in vitro produces both F2-IsoPs and IsoKs in nearly equivalent amounts. However, comparison of the formation of F2-IsoPs and IsoKs in vivo is more complex, because IsoKs rapidly adduct to lysyl residues on proteins. […] In striking contrast, approximately 50% of the HNE still remained in free form after 80 minutes.
# proteasome = test: Hydrolysis of fluorogenic substrate VKM-amc by proteasome containing cell lysates; type: biochemical; conditions: equimolar adduction of VKM-amc
# [9] = system: plasma concentrations of F2-IsoPs; test: Vitamin E supplementation, plasma F2-IsoPs in subjects with hypercholesterolemia; type: in vivo, human
# Protocol: The use of antioxidants to suppress oxidative injury: An important aspect of antioxidant clinical trials that has not received sufficient attention until recently, is the scientific rational for the choice of a particular antioxidant to test, the dose to test, and the duration of treatment. […] This was a key finding because the literature is abound with studies in which have vitamin E was administered for less than 10 weeks to determine its effects on some pathologic process. […] This is an important finding because many studies of the effects of vitamin E have used doses of 400 I.U./d and observed no benefit.
# progression of AD = conditions: 2000 I.U./d; cited from earlier work
# 20S proteasome [10] = test: Degradation of adducted ovalbumin by purified 20S proteasome; type: biochemical
# [11] = system: F2-IsoPs in renal vein plasma; conditions: 1 mM in the drinking water, chronic oral; cited from earlier work
# [12] = system: plasma concentrations of F2-IsoPs; test: Porcine model of global ischemia/reperfusion (cardiac arrest and CPR), plasma F2-IsoPs; type: in vivo; conditions: 30 mg/kg intravenous, single dose during CPR
# Protocol: The present inventors chose antioxidants to test in the models of AD that we have found effective in suppressing oxidative stress in other animal models of oxidative injury. One model of oxidative injury is the porcine model of global ischemia/reperfusion resulting from induction of cardiac arrest for 3 mins followed by cardiopulmonary resuscitation (CPR). Shown in FIG. 25 are results using this model. As shown, cardiac arrest followed by CPR induced a dramatic increase in plasma concentrations of F2-IsoPs. […] This study involved the administration of a single dose of Tempol. Shown in FIG. 26 is data taken from a report from Ortiz, et. al. in which they assessed the ability of chronic oral administration of TEMPOL (1 mM in the drinking water) to suppress the increase in F2-IsoPs induced by chronic IV infusion of angiotensin II. […] Tempol is one of the antioxidants of the present invention.
# 20S proteasome [13] = biological target: 20S proteasome (Homo sapiens, UniProt P28074); test: Inhibition of 20S proteasome chymotrypsin-like activity (LLVY-amc hydrolysis); type: biochemical
# Text: Because nondegradable substrates often act as competitive inhibitors, the inventors tested whether E2-IsoK adducted proteins would inhibit proteasome chymotrypsin-like activity as measured by hydrolysis of a fluorogenic substrate, LLVY-amc.
compound,measurement,setting,value
F2-isoprostane,V1/2 voltage-dependence of inactivation (availability),[1],−91.4±1.8 mV
NCCO [2-aminoethanol],approximate second order rate constants for pyrrole formation,[2],3.1e+08 M⁻¹ s⁻¹
COc1ccc(C(=O)Nc2ccccc2CCC2CCCCN2C)cc1 (centres unmarked) [encainide],mortality increase,[3],three-fold
CC(=O)N[C@@H](CCCCN)C(=O)O [N^αacetyllysine],approximate second order rate constants for pyrrole formation,[2],7e+07 M⁻¹ s⁻¹
"NCc1ccccc1O [SA, salicylamine]",levels of F2-IsoP formed,[4],None of the three scavengers reduced
same,selectivity for γ KA products over other lipid peroxidation products,[4],relatively selectively
same,levels of Lys-lactam adduct formed,[4],markedly reduced
same,protection of cellular viability,HepG2 cell,best protection
same,lipophilicity / penetration into nonpolar environments,[5],readily dissolve into ethyl acetate; also recorded: most lipophilic scavenger
same,"memory performance (latency, Z-score)",[6],significantly improved the performance
same,"memory performance (latency, Z-score)",[6]; listed as salicylamine,improves memory
same,scavenging γ KAs,[2],very good at scavenging
same,"systolic function, fractional LV shortening (FS) by echocardiography","[7]; 1 g/l in drinking water, 7 days post MI",improved systolic function
same,Lys-lactam protein adducts in infarct and peri-infarct borderzone,[7]; 7 days after coronary ligation,appears to prevent the adduct formation
same,infarct size,[7]; hearts harvested 7 days after coronary ligation,significantly reduced infarct size
same,survival after MI,[7]; p=0.1,trend towards increased survival
same,tolerability of the dosing regimen,[8]; 1 g/l in drinking water,well tolerated
same,oral bioavailability,"[8]; mouse, in vivo, po",orally bioavailable
"CCCCCC(O)/C=C/C=O (centres unmarked) [HNE, 4-hydroxynonenal]",V1/2 voltage-dependence of inactivation (availability),[1],−83.7±2.1 mV
same,cross-linking of ovalbumin,ovalbumin (OVA),no cross-linking was observed
same,remained in free form,bovine serum albumin,approximately 50%
same,hydrolysis of the adducted peptide by proteasome containing cell lysates,proteasome,no effect on hydrolysis
pentylpyridoxamine [PPM],levels of F2-IsoP formed,[4],None of the three scavengers reduced
same,selectivity for γ KA products over other lipid peroxidation products,[4],relatively selectively; also recorded: most selective
same,levels of Lys-lactam adduct formed,[4],markedly reduced
same,protection of cellular viability,HepG2 cell,slightly less protection
same,scavenging γ KAs,[2],very good at scavenging
vitamin E,reduction of F2-IsoP levels,"[9]; 800 I.U./d, 18 weeks",about 10%
same,maximum suppression of plasma F2-IsoPs,"[9]; 3200 I.U./d, 18 weeks",49%
same,effect on F2-IsoP levels,"[9]; doses below 800 I.U./d, 18 weeks",no significant effect
same,supplementation required to reach the plateau in maximum suppression of plasma F2-IsoPs,"[9]; human, in vivo",sixteen
same,effect to slow the progression of the disease,progression of AD,modest effect
IsoK(1)-OVA: ovalbumin adducted with equimolar E2-IsoK,degradation by purified 20S proteasome,20S proteasome [10],nearly in half
NCc1ccncc1 [4-picolinylamine],approximate second order rate constants for pyrrole formation,[2],0.0011 M⁻¹ s⁻¹
CC1(C)CC(O)CC(C)(C)N1[O] [Tempol],increase in levels of F2-IsoPs in renal vein plasma,[11],completely prevented the increase
same,increase in plasma levels of F2-IsoPs,[12],completely ablated this increase
"Cc1ncc(CO)c(CN)c1O [PM, pyridoxamine]",protection of cellular viability,HepG2 cell,no significant protection
same,lipophilicity / penetration into nonpolar environments,[5],quite hydrophilic; also recorded: poorly penetrates into nonpolar environments
"NCc1ccc(O)cc1 [4-SA, 4-salicylamine]",scavenging γ KAs,[2],inactive
IsoK-Aβ1-40: Aβ1-40 adducted with E2-IsoK,IC50,20S proteasome [13],1.3 µM
IsoK(10)-OVA: ovalbumin adducted with ten molar equivalents of E2-IsoK,degradation by purified 20S proteasome,20S proteasome [10],completely blocked its degradation
